Reference: ChEMBL document CHEMBL1144130, “11-Deoxyfistularin-3, a new cytotoxic metabolite from the caribbean sponge Aplysina fistularis insularis” (1999)
In brackets after ≈: the same amount, converted by molar mass.

Columns and labels:
Assay type in all cases: functional
[1] = system: HeLa; experiment: Cytotoxicity against human HeLa cells after 96 hrs by MTT assay; conditions: read-out: LD50 (the source's name)
[2] = system: LoVo; experiment: Cytotoxicity against human LoVo cells after 96 hrs by MTT assay; conditions: read-out: LD50 (the source's name)
[3] = system: RD; experiment: Cytotoxicity against human RD cells after 96 hrs by MTT assay; conditions: read-out: LD50 (the source's name)
[4] = system: HEp-2; experiment: Cytotoxicity against human Hep2 cells after 96 hrs by MTT assay; conditions: HEp-2, 96 h, read-out: LD50 (the source's name)
[5] = system: MCF7; experiment: Cytotoxicity against human MCF7 cells after 96 hrs by MTT assay; conditions: MCF7, 96 h, read-out: LD50 (the source's name)
[6] = Cytotoxicity against human XL17 cells after 96 hrs by MTT assay; conditions: XL17, 96 h, read-out: LD50 (the source's name)

**Q.** Which CC50 [1] does the source give for `COC1=C(Br)[C@H](O)[C@@]2(C=C1Br)CC(C(=O)NCCCOc1c(Br)cc(C(O)CNC(=O)C3=NO[C@]4(C=C(Br)C(OC)=C(Br)[C@@H]4O)C3)cc1Br)=NO2` (stereo partly specified) here?
**A.** The CC50 was 17 µg/mL (≈ 15.5 µM).

**Q.** What about the CC50 [2] of the same molecule?
**A.** The CC50 was 17 µg/mL (≈ 15.5 µM).

**Q.** And the CC50 [3]?
**A.** The CC50 was 17 µg/mL (≈ 15.5 µM).

**Q.** And the CC50 [4]?
**A.** The CC50 was 17 µg/mL (≈ 15.5 µM).

**Q.** And the CC50 [5]?
**A.** The CC50 was > 50 µg/mL.

**Q.** And the CC50 [6]?
**A.** The CC50 was 17 µg/mL (≈ 15.5 µM).
